Measured values taken from patent publication US9289488B2, “Vaccine engineering” (AC Immune SA, priority 2010, dated 2016).
Read-outs that look alike come from different tables or passages of the source. K(Palm) = lysine with palmitoylated side chain (X = Palmitoyl); K(Ac) = lysine with acetylated side chain (X = Acetyl)

Assays:
[1] = biological target: T1, β-sheet aggregates of liposomal Palm1-15 (ACI-24) (Homo sapiens, UniProt P05067); assay: Disaggregation assay using ThT fluorescence on ACI-24; assay type: biochemical; details: for decrease of ThT fluorescence upon addition of metal: near stoichiometric metal:peptide (20 μM : 15 μM), 2 h incubation; for ThT fluorescence after incubation with β-sheet breaker small molecule: ACI-24, 2 h incubation
T1 construct: purchased Bachem (Switzerland); host or cells: chemical synthesis
Experimental: (§1) • CD spectra were acquired on a Jasco-815 spectropolarimeter (Japan) with a 0.1 cm path length quartz cuvette at 23° C. Measurements were made with a 1.0 nm bandwidth and 0.5 nm resolution. A scan speed of 50 nm/min was employed with response time of 1 s. Solvent control spectra (4 scans) were averaged and subtracted from the average of 8 scans of each sample spectra. All spectra ([θ]obs, degrees) were smoothed after being converted to mean residue molar ellipticity ([θ], degrees cm^2 dmol^−1) with the equation [θ]=[θ]obs×(MRW/10lc), where MRW is the mean residue molecular weight (MW/number of residues), l is the optical path length (cm) and c is the concentration (g/cm^3). […] Spectra of the corresponding empty liposomes lacking peptide were subtracted. A2 ThT Fluorescence. • Fluorescence emission spectra were measured at 25° C. on a Tecan M200 spectrofluorimeter with an excitation of 440 nm. […] Data were fitted using non-linear regression analysis (SigmaPlot v10.0) assuming single-site binding saturation in order to calculate apparent Kd and maximal binding Bmax. A3 Disaggregation Assay Using ThT Fluorescence. • ZnCl2, FeCl3 or CuCl2 (2 μL, 1 mM in H2O) were incubated with liposomes diluted 4-fold in PBS (48 μL) for 2 h at 22° C. PBS (48 μL) with or without DPTA (0.4 mM) was added accordingly after 5 min. ThT (2 μL, 2.4 mM in H2O) was then added and fluorescence measured after a further 5 min. For disaggregation with small molecules, Rosmarinic acid, Tannic acid or Methylene Blue (2 μL, 2.7 mM in PBS) were added to 86 μL of liposomes diluted 8-fold with PBS. After 2 h incubation at RT, ThT (2 μL, 2.4 mM in H2O) was added and after 10 min. fluorescence was measured at 490 nm (Ex. 440 nm). A4 MAS-NMR Spectroscopy. • Experiments were conducted using a 3.2 mm triple-resonance (^1H, ^13C, ^15N) MAS probe (Bruker Biospin, Germany) at a static magnetic field of 16.4 T corresponding to 700 MHz proton resonance frequency. […] Experiments were recorded using 10 kHz MAS and at effective sample temperature of about 4° C. After a cross polarization (CP) step employing a contact time of 600 μs, the SPC5 pulse sequence was used for generation of DQ coherence, with a ^13C radio frequency (r.f.) field strength of 50 kHz and DQ excitation and reconversion time totaling 2.28 ms. Acquisition involved in each case 110K repetitions. An ^1H field strength of 83.3 kHz was used during excitation and SPINAL64 proton decoupling. A5 SPR Analysis of Peptide-Liposome Interactions. • Experiments were performed at 25° C. using 0.2 μm filtered and degassed PBS as running buffer. An L1 sensor chip (GE Healthcare, Sweden) was docked into a BIAcore 1000 instrument and the chip surface conditioned by injection of 50 μL of Zwittergent at 30 μL/min. Liposomes lacking peptide (‘empty’ liposomes) were then immobilized onto the sensor chip following 2 successive injections of 50 μL at 2 μL/min. Finally 50 μL of 50 mM NaOH was injected over the surface at 30 μL/min in order to render the surface more unilamellar. […] 50 μL of acetylated peptides solubilized in PBS were then injected over the surface over a range of concentrations at a flow rate of 30 μL/min, followed by dissociation with PBS for 300 s. After analysis of the interaction of different peptides, a fresh lipid bilayer was immobilized. A6 Dynamic Light Scattering. • Liposome samples were diluted 100-fold with PBS. Analysis was performed using a Zetasizer Nano (Malvern, USA) at 25° C. Data was analyzed with DTS 5.0 (Malvern) software by signal intensity in order to calculate the average liposome diameter and polydispersity index (PDI). A7 Cryo-EM. • Liposome sample was diluted 6-fold with PBS and then 3 μL was applied on glow discharged R 2/4 holey carbon grids (Quantifoil®), blotted off, and plunged frozen into liquid ethane under temperature and humidity controlled conditions using the Vitribot™ (FEI, The Netherlands).

[2] = reported value; read-out: apparent Kd for the interaction of ThT with Aβ1-40; cited from earlier work
[3] = CD spectroscopy of peptide secondary structure; assay type: physicochemical; details: PBS; palmitoylated peptides in liposomes, acetylated peptides alone
Experimental: as §1

[4] = ThT fluorescence binding to liposomal peptide constructs; details: for Kd: ThT binding, single site fit, read-out: App. Kd; for Kd / Bmax: liposomes DMPC/DMPG/cholesterol/MPLA 9:1:7:0.06, diluted 8-fold; for Bmax: ThT fluorescence at saturation; for Bmax (% rel. ACI-24): relative to ACI-24 (Palm1-15); for ThT fluorescence emission (in words): emission at 485 nm, excitation 440 nm, PBS
Experimental: as §1

Row | Kd [4] [µM] | Bmax [4] | Bmax (% rel. ACI-24) [4] [%] | Molecule | Secondary structure by CD spectroscopy [3] | also measured
1 | – | – | – | [Cl][Cu][Cl] [Cu(II), CuCl2] | – | EC50 ([1]; ACI-24, ThT fluorescence, read-out: EC50 value for Cu(II) disaggregation): ~3 µM; decrease of ThT fluorescence upon addition of metal [1]: ~75%
2 | – | – | – | [Cl][Fe]([Cl])[Cl] [Fe(III), FeCl3] | – | decrease of ThT fluorescence upon addition of metal [1]: none
3 | – | – | – | CN(C)c1ccc2nc3ccc(=[N+](C)C)cc-3sc2c1 [Methylene Blue] | – | ThT fluorescence after incubation with β-sheet breaker small molecule [1]: most efficient disaggregation
4 | – | – | – | O=C(/C=C/c1ccc(O)c(O)c1)O[C@H](Cc1ccc(O)c(O)c1)C(=O)O [Rosmarinic acid] | – | ThT fluorescence after incubation with β-sheet breaker small molecule [1]: decrease of fluorescence
5 | – | – | – | O=C(OC[C@H]1O[C@@H](OC(=O)c2cc(O)c(O)c(OC(=O)c3cc(O)c(O)c(O)c3)c2)[C@H](OC(=O)c2cc(O)c(O)c(OC(=O)c3cc(O)c(O)c(O)c3)c2)[C@@H](OC(=O)c2cc(O)c(O)c(OC(=O)c3cc(O)c(O)c(O)c3)c2)[C@@H]1OC(=O)c1cc(O)c(O)c(OC(=O)c2cc(O)c(O)c(O)c2)c1)c1cc(O)c(O)c(OC(=O)c2cc(O)c(O)c(O)c2)c1 [Tannic acid] | – | ThT fluorescence after incubation with β-sheet breaker small molecule [1]: decrease of fluorescence
6 | – | – | – | [Cl-].[Cl-].[Zn+2] [Zn(II), ZnCl2] | – | decrease of ThT fluorescence upon addition of metal [1]: ~12%
7 | – | – | – | Aβ1-40: β-amyloid peptide Aβ1-40 | – | Kd [2]: 11 µM
8 | – | – | – | H-K(X)-K(X)-DAAFRHKSGYEVHHQ-K(X)-K(X)-OH ({K(Ac)-K(Ac)}-DAAFRHKSGYEVHHQ-{K(Ac)-K(Ac)-OH}) [Acetyl1-15(E3A, D7K), X = Acetyl] | unstructured random coil conformations | –
9 | 14.7 | 24854 | 68 | H-K(X)-K(X)-DAAFRHKSGYEVHHQ-K(X)-K(X)-OH ({K(Palm)-K(Palm)}-DAAFRHKSGYEVHHQ-{K(Palm)-K(Palm)-OH}) [Palm1-15(E3A, D7K), X = Palmitoyl] | – | –
10 | 0.7 | 12653 | 35 | H-K(X)-K(X)-DAEFR-K(X)-K(X)-OH [Palm1-5, X = Palmitoyl] | mixed proportion of extended β-sheet and random coil conformations | ThT fluorescence emission (in words) [4]: lower ThT fluorescence intensity
11 | – | – | – | H-K(X)-K(X)-DAEFRHKSGYEVHHQ-K(X)-K(X)-OH ({K(Ac)-K(Ac)}-DAEFRHKSGYEVHHQ-{K(Ac)-K(Ac)-OH}) [Acetyl1-15(D7K), X = Acetyl] | unstructured random coil conformations | –
12 | 8.8 | 21197 | 58 | H-K(X)-K(X)-DAEFRHKSGYEVHHQ-K(X)-K(X)-OH ({K(Palm)-K(Palm)}-DAEFRHKSGYEVHHQ-{K(Palm)-K(Palm)-OH}) [Palm1-15(D7K), X = Palmitoyl] | – | –
13 | – | – | – | H-K(X)-K(X)-DAKFRHKSGYEVHHQ-K(X)-K(X)-OH ({K(Ac)-K(Ac)}-DAKFRHKSGYEVHHQ-{K(Ac)-K(Ac)-OH}) [Acetyl1-15(E3K, D7K), X = Acetyl] | unstructured random coil conformations | –
14 | 12.1 | 12567 | 35 | H-K(X)-K(X)-DAKFRHKSGYEVHHQ-K(X)-K(X)-OH ({K(Palm)-K(Palm)}-DAKFRHKSGYEVHHQ-{K(Palm)-K(Palm)-OH}) [Palm1-15(E3K, D7K), X = Palmitoyl] | – | –
15 | – | – | – | H-K(X)-K(X)-DAKFRHKSGYKVHHQ-K(X)-K(X)-OH ({K(Ac)-K(Ac)}-DAKFRHKSGYKVHHQ-{K(Ac)-K(Ac)-OH}) [Acetyl1-15(E3K, D7K, E11K), X = Acetyl] | unstructured random coil conformations | –
16 | 10.1 | 24981 | 69 | H-K(X)-K(X)-DAKFRHKSGYKVHHQ-K(X)-K(X)-OH ({K(Palm)-K(Palm)}-DAKFRHKSGYKVHHQ-{K(Palm)-K(Palm)-OH}) [Palm1-15(E3K, D7K, E11K), X = Palmitoyl] | – | –
17 | – | – | – | H-K(X)-K(X)-GHEAYHSVERFDDQH-K(X)-K(X)-OH [scAcetyl15] ({K(Ac)-K(Ac)}-GHEAYHSVERFDDQH-{K(Ac)-K(Ac)-OH}) [X = Acetyl] | unstructured random coil conformations | ThT fluorescence emission (in words) [4]: no fluorescence
18 | 7.9 | 13844 | 38 | H-K(X)-K(X)-GHEAYHSVERFDDQH-K(X)-K(X)-OH [scPalm15] ({K(Palm)-K(Palm)}-GHEAYHSVERFDDQH-{K(Palm)-K(Palm)-OH}) [X = Palmitoyl] | β-sheet conformation | –
19 | – | – | – | H-K(X)-K(X)-QHHVEYGSDHRFEAD-K(X)-K(X)-OH [Acetyl15-1] ({K(Ac)-K(Ac)}-QHHVEYGSDHRFEAD-{K(Ac)-K(Ac)-OH}) [X = Acetyl] | unstructured random coil conformations | ThT fluorescence emission (in words) [4]: no fluorescence
20 | 7.8 | 11023 | 30 | H-K(X)-K(X)-QHHVEYGSDHRFEAD-K(X)-K(X)-OH [Palm15-1] ({K(Palm)-K(Palm)}-QHHVEYGSDHRFEAD-{K(Palm)-K(Palm)-OH}) [X = Palmitoyl] | β-sheet conformation | –
